{"source": "the kinase profiling compilation of Christmann-Franck et al. (2016)", "experiment_in_all_cases": "KINOMEscan competition binding", "conditions_in_all_cases": "compound 10.0 µM", "key": {"AURKB (human)": {"target": "AURKB (human) (UniProt Q96GD4)"}, "CAMK2D (human)": {"target": "CAMK2D (human) (UniProt Q13557)"}, "CDK3 (human)": {"target": "CDK3 (human) (UniProt Q00526)"}, "CDK4 CCND1 (human)": {"target": "CDK4 CCND1 (human) (UniProt P11802+P24385)"}, "CIT (human)": {"target": "CIT (human) (UniProt O14578)"}, "CPK1 (P.falciparum)": {"tested_on": "CPK1 (P.falciparum)"}, "CSNK1G1 (human)": {"target": "CSNK1G1 (human) (UniProt Q9HCP0)"}, "DAPK1 (human)": {"target": "DAPK1 (human) (UniProt P53355)"}, "EGFR (human)": {"target": "EGFR (human) (UniProt P00533)", "sequence (P00533 whole entry, looked up)": "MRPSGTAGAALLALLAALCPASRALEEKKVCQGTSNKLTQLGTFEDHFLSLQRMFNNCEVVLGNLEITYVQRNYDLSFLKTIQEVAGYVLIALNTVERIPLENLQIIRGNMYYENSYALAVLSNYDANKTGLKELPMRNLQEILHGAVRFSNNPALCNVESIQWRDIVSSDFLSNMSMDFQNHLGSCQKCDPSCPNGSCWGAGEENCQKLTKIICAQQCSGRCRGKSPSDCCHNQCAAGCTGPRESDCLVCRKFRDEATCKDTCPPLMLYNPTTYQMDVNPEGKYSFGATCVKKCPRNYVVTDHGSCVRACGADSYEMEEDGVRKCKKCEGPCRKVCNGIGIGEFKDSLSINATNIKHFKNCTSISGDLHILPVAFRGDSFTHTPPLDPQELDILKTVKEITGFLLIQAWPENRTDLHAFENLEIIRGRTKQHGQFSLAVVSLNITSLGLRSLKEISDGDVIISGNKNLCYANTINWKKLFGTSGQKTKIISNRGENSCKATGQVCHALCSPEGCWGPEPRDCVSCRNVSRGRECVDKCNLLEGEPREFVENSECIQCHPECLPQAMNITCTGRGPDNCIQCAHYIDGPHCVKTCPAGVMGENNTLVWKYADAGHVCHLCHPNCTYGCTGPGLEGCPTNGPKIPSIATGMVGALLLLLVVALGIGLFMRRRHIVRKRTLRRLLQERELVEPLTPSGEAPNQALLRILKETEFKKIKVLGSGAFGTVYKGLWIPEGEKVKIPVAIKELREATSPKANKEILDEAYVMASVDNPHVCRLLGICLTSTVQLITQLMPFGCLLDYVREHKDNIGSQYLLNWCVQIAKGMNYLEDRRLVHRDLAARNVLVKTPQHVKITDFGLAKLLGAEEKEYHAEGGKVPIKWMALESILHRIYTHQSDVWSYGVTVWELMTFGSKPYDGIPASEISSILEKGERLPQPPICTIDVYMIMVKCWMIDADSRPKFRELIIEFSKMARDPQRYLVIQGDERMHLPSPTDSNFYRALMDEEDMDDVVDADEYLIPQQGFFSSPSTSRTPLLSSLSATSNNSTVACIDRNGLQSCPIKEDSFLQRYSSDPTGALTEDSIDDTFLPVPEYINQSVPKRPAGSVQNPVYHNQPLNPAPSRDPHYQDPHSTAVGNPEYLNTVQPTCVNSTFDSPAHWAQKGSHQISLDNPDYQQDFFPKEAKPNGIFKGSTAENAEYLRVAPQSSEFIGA"}, "EPHB6 (human)": {"target": "EPHB6 (human) (UniProt O15197)"}, "GAK (human)": {"target": "GAK (human) (UniProt O14976)"}, "[1]": {"target": "JAK1 JH1 catalytic (human) (UniProt P23458)", "sequence (P23458 whole entry, looked up)": "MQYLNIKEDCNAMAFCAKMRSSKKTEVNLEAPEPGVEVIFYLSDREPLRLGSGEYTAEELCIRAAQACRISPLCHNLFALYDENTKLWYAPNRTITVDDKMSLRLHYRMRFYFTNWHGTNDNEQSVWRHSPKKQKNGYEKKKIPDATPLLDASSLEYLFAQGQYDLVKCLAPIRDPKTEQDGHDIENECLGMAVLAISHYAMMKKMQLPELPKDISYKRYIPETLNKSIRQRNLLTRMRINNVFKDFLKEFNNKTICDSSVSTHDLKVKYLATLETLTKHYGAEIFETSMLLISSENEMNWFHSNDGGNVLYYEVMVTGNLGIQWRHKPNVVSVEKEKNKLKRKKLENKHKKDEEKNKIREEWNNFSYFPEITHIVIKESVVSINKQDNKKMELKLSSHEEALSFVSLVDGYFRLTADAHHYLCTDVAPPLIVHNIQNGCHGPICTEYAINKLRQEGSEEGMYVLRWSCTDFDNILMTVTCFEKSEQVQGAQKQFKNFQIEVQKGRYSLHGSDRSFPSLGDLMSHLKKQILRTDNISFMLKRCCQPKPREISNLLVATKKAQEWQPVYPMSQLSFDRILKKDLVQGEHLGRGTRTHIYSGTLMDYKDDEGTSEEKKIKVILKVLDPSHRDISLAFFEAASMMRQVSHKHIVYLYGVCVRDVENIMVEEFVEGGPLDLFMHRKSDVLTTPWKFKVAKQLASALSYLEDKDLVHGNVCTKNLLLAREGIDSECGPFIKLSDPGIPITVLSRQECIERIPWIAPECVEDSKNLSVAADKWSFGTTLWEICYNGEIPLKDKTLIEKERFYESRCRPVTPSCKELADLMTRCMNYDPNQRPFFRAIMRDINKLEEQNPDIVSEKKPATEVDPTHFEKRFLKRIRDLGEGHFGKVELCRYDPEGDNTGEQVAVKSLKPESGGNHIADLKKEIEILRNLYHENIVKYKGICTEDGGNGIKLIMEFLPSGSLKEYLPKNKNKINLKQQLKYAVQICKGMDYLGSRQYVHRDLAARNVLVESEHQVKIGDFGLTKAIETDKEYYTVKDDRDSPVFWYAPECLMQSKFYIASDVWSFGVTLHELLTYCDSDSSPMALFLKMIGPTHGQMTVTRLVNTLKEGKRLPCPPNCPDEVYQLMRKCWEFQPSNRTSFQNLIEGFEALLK"}, "LRRK2 (human)": {"target": "LRRK2 (human) (UniProt Q5S007)"}, "MAP2K7 (human)": {"target": "MAP2K7 (human) (UniProt O14733)", "sequence (O14733 whole entry, looked up)": "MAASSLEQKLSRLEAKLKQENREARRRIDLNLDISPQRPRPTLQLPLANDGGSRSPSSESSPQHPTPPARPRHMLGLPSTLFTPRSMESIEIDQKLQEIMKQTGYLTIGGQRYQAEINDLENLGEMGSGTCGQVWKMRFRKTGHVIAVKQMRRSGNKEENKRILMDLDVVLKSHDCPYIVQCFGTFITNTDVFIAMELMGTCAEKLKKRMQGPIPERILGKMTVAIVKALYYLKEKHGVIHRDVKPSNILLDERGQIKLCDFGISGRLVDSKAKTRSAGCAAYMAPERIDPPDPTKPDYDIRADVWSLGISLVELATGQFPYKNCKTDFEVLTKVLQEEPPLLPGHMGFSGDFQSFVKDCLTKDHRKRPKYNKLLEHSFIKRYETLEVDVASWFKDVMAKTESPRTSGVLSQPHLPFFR"}, "MAP3K6 (human)": {"target": "MAP3K6 (human) (UniProt O95382)"}, "MAP4K5 (human)": {"target": "MAP4K5 (human) (UniProt Q9Y4K4)", "sequence (Q9Y4K4 whole entry, looked up)": "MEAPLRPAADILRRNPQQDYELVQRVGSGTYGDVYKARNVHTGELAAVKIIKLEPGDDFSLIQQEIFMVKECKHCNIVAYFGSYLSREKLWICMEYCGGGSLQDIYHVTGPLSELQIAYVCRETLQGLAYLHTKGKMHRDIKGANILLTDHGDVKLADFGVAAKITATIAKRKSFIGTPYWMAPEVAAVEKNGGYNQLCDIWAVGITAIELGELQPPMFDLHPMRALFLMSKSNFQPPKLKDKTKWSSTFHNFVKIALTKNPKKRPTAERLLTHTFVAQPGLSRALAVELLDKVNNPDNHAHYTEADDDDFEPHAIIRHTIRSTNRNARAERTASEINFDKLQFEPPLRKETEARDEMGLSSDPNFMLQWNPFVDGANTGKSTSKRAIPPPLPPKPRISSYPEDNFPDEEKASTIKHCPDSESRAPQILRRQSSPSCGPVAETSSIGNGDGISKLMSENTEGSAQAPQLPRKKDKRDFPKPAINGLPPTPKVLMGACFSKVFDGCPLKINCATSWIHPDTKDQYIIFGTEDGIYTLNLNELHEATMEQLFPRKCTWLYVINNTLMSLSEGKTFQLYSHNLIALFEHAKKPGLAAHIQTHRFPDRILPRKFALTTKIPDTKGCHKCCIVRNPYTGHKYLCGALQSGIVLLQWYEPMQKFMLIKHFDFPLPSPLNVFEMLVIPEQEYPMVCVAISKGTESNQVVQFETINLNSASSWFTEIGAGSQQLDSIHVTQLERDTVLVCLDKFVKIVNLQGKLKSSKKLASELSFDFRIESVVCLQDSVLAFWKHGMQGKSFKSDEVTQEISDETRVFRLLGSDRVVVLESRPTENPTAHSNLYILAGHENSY"}, "MAPK12 (human)": {"target": "MAPK12 (human) (UniProt P53778)"}, "MKNK2 (human)": {"target": "MKNK2 (human) (UniProt Q9HBH9)", "sequence (Q9HBH9 whole entry, looked up)": "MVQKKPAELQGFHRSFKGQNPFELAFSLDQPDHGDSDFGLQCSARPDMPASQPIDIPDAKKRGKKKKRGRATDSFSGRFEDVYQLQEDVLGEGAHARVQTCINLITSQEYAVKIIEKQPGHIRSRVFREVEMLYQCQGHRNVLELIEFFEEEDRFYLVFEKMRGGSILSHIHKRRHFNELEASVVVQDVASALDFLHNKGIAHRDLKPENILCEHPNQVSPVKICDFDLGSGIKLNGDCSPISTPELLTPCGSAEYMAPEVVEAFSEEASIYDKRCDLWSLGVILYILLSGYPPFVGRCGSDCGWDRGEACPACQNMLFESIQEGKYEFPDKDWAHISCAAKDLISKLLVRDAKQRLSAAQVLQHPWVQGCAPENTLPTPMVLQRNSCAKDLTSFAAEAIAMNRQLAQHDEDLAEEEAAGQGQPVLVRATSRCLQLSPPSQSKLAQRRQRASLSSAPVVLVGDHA"}, "NEK11 (human)": {"target": "NEK11 (human) (UniProt Q8NG66)"}, "NEK3 (human)": {"target": "NEK3 (human) (UniProt P51956)"}, "NEK4 (human)": {"target": "NEK4 (human) (UniProt P51957)"}, "NEK5 (human)": {"target": "NEK5 (human) (UniProt Q6P3R8)"}, "PDGFRA (human)": {"target": "PDGFRA (human) (UniProt P16234)"}, "PDPK1 (human)": {"target": "PDPK1 (human) (UniProt O15530)"}, "[2]": {"tested_on": "PIK3CA (human), P42336 [H1047L]"}, "[3]": {"tested_on": "PIK3CA (human), P42336 [M1043I]"}, "PIK3CB (human)": {"target": "PIK3CB (human) (UniProt P42338)"}, "PRKCE (human)": {"target": "PRKCE (human) (UniProt Q02156)"}, "PRKD2 (human)": {"target": "PRKD2 (human) (UniProt Q9BZL6)"}, "PTK2B (human)": {"target": "PTK2B (human) (UniProt Q14289)"}, "[4]": {"tested_on": "RET (human), P07949 [V804L]"}, "RIOK3 (human)": {"target": "RIOK3 (human) (UniProt O14730)"}, "SIK1 (human)": {"target": "SIK1 (human) (UniProt P57059)", "sequence (P57059 whole entry, looked up)": "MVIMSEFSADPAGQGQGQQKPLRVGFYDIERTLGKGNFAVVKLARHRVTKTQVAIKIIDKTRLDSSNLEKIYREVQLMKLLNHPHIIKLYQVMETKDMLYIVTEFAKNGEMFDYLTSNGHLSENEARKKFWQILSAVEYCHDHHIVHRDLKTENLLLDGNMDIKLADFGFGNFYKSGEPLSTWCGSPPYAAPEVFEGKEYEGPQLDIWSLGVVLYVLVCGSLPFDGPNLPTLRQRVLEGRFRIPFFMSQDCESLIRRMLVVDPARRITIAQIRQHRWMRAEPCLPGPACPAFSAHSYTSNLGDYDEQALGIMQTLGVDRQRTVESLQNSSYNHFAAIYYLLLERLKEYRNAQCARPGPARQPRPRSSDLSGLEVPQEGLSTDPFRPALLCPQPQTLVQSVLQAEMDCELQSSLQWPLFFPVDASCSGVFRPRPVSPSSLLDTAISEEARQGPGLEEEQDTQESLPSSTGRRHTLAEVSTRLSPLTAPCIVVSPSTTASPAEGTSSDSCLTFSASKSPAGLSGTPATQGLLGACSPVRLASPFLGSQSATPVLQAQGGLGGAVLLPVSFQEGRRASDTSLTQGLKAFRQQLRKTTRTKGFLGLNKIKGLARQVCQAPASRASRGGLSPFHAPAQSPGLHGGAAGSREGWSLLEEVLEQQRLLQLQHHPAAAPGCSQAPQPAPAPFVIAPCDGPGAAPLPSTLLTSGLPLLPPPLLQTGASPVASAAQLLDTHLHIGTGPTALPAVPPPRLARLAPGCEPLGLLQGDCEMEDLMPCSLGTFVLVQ"}, "STK10 (human)": {"target": "STK10 (human) (UniProt O94804)"}, "STK36 (human)": {"target": "STK36 (human) (UniProt Q9NRP7)"}, "[5]": {"target": "TYK2 JH2 pseudokinase (human) (UniProt P29597)"}, "ULK1 (human)": {"target": "ULK1 (human) (UniProt O75385)"}, "ULK3 (human)": {"target": "ULK3 (human) (UniProt Q6PHR2)"}, "VRK2 (human)": {"target": "VRK2 (human) (UniProt Q86Y07)"}, "WEE1 (human)": {"target": "WEE1 (human) (UniProt P30291)"}}, "data": [{"smiles": "CCN1CCN(Cc2ccc(NC(=O)c3ccc(C)c(/C=C/c4cnc5[nH]ccc5c4OC)c3)cc2C(F)(F)F)CC1", "values": [{"measurement": "kinase still bound, per cent of control", "setting": "AURKB (human)", "value": 16, "unit": "%"}, {"measurement": "kinase still bound, per cent of control", "setting": "CAMK2D (human)", "value": 100, "unit": "%"}, {"measurement": "kinase still bound, per cent of control", "setting": "CDK3 (human)", "value": 100, "unit": "%"}, {"measurement": "kinase still bound, per cent of control", "setting": "CDK4 CCND1 (human)", "value": 74, "unit": "%"}, {"measurement": "kinase still bound, per cent of control", "setting": "CIT (human)", "value": 0, "unit": "%"}, {"measurement": "kinase still bound, per cent of control", "setting": "CPK1 (P.falciparum)", "value": 0.2, "unit": "%"}, {"measurement": "kinase still bound, per cent of control", "setting": "CSNK1G1 (human)", "value": 98, "unit": "%"}, {"measurement": "kinase still bound, per cent of control", "setting": "DAPK1 (human)", "value": 100, "unit": "%"}, {"measurement": "kinase still bound, per cent of control", "setting": "EGFR (human)", "value": 0.4, "unit": "%"}, {"measurement": "kinase still bound, per cent of control", "setting": "EPHB6 (human)", "value": 1.8, "unit": "%"}, {"measurement": "kinase still bound, per cent of control", "setting": "GAK (human)", "value": 2.2, "unit": "%"}, {"measurement": "kinase still bound, per cent of control", "setting": "[1]", "value": 39, "unit": "%"}, {"measurement": "kinase still bound, per cent of control", "setting": "LRRK2 (human)", "value": 12, "unit": "%"}, {"measurement": "kinase still bound, per cent of control", "setting": "MAP2K7 (human)", "value": 1.4, "unit": "%"}, {"measurement": "kinase still bound, per cent of control", "setting": "MAP3K6 (human)", "value": 64, "unit": "%"}, {"measurement": "kinase still bound, per cent of control", "setting": "MAP4K5 (human)", "value": 3.4, "unit": "%"}, {"measurement": "kinase still bound, per cent of control", "setting": "MAPK12 (human)", "value": 40, "unit": "%"}, {"measurement": "kinase still bound, per cent of control", "setting": "MKNK2 (human)", "value": 2.7, "unit": "%"}, {"measurement": "kinase still bound, per cent of control", "setting": "NEK11 (human)", "value": 32, "unit": "%"}, {"measurement": "kinase still bound, per cent of control", "setting": "NEK3 (human)", "value": 77, "unit": "%"}, {"measurement": "kinase still bound, per cent of control", "setting": "NEK4 (human)", "value": 33, "unit": "%"}, {"measurement": "kinase still bound, per cent of control", "setting": "NEK5 (human)", "value": 4.3, "unit": "%"}, {"measurement": "kinase still bound, per cent of control", "setting": "PDGFRA (human)", "value": 0.15, "unit": "%"}, {"measurement": "kinase still bound, per cent of control", "setting": "PDPK1 (human)", "value": 65, "unit": "%"}, {"measurement": "kinase still bound, per cent of control", "setting": "[2]", "value": 100, "unit": "%"}, {"measurement": "kinase still bound, per cent of control", "setting": "[3]", "value": 84, "unit": "%"}, {"measurement": "kinase still bound, per cent of control", "setting": "PIK3CB (human)", "value": 100, "unit": "%"}, {"measurement": "kinase still bound, per cent of control", "setting": "PRKCE (human)", "value": 75, "unit": "%"}, {"measurement": "kinase still bound, per cent of control", "setting": "PRKD2 (human)", "value": 50, "unit": "%"}, {"measurement": "kinase still bound, per cent of control", "setting": "PTK2B (human)", "value": 0.75, "unit": "%"}, {"measurement": "kinase still bound, per cent of control", "setting": "[4]", "value": 0.1, "unit": "%"}, {"measurement": "kinase still bound, per cent of control", "setting": "RIOK3 (human)", "value": 0.35, "unit": "%"}, {"measurement": "kinase still bound, per cent of control", "setting": "SIK1 (human)", "value": 0.9, "unit": "%"}, {"measurement": "kinase still bound, per cent of control", "setting": "STK10 (human)", "value": 0, "unit": "%"}, {"measurement": "kinase still bound, per cent of control", "setting": "STK36 (human)", "value": 0.3, "unit": "%"}, {"measurement": "kinase still bound, per cent of control", "setting": "[5]", "value": 100, "unit": "%"}, {"measurement": "kinase still bound, per cent of control", "setting": "ULK1 (human)", "value": 8.5, "unit": "%"}, {"measurement": "kinase still bound, per cent of control", "setting": "ULK3 (human)", "value": 1.5, "unit": "%"}, {"measurement": "kinase still bound, per cent of control", "setting": "VRK2 (human)", "value": 92, "unit": "%"}, {"measurement": "kinase still bound, per cent of control", "setting": "WEE1 (human)", "value": 100, "unit": "%"}]}]}
